The test system of the experiment is PMA-differentiated THP-1 cells. Put plainly: IL-1β production in PMA-differentiated THP-1 cells stimulated with gramicidin (hTHP-1 assay containing 2% fetal bovine serum; Procedures 1 and 2). It counts as cell-based, human. As to conditions: 2% fetal bovine serum. An outline of the steps: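 Secreted IL-1β, read by HTRF, after gramicidin challenge (5 μM, 2 h) of THP-1 cells differentiated with PMA (20 ng/ml, 16-18 h) and plated at 50,000 cells/well in 2% FBS medium. Compounds, 0.0017-100 μM final with 0.37% DMSO, were added 1 h before stimulation.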

The mark [1] stands for this setting: Homo sapiens, THP-1, Table B2, class symbols, read-out: hTHP-1 IC50.
Where [2] appears, read: Table B1, class symbols, read-out: Average IC50 of compounds in hTHP-1 assay: hTHP-1 IC50.
The mark [3] stands for this setting: Homo sapiens, THP-1, Table B1, numeric bounds, read-out: Average IC50 of compounds in hTHP-1 assay: hTHP-1 IC50.
Setting [4] is: Homo sapiens, THP-1, Table B4, class symbols, read-out: hTHP-1 IC50.
The mark [5] stands for this setting: Table B3, hTHP-1 assay, class symbols, read-out: IC50.
Setting [6] is: Homo sapiens, THP-1, Table B3, hTHP-1 assay, class symbols, read-out: IC50.
Setting [7] is: Table B4, class symbols, read-out: hTHP-1 IC50.

Read-outs that look alike come from different tables or passages of the source. A value given as a limit tells only on which side of the number the result lay.

Consider `C[C@@H]1CCc2c1nc1c(c2NC(=O)N=S(N)(=O)c2ccn(C)n2)CCC1` (stereo partly drawn) [Compound 639, 1-Methyl-N′-(((R)-3-methyl-1,2,3,5,6,7-hexahydrodicyclopenta[b,e]pyridin-8-yl)carbamoyl)-1H-pyrazole-3-sulfonimidamide], for which the IC50 (in general, the point on the concentration scale where inhibition reaches its midpoint) under setting [1] was in the range of 1 to 5 µM.
With `CC(C)(O)c1ncc(S(N)(=O)=NC(=O)Nc2c3c(nc4c2CCC4F)CCC3)s1` (single isomer, unassigned) [Compound 183d, (S,R) or (S,S)-N′-((3-fluoro-1,2,3,5,6,7-hexahydrodicyclo-penta[b,e]pyridin-8-yl)carbamoyl)-2-(2-hydroxypropan-2-yl)thiazole-5-sulfonimidamide], the half-maximal inhibitory concentration (IC50) (Table B1, numeric bounds, read-out: Average IC50 of compounds in hTHP-1 assay: hTHP-1 IC50) is greater than 30 µM.
As to `CC1CCc2c1nc1c(c2NC(=O)N=S(N)(=O)c2ccn(C(F)F)n2)CCC1` (single isomer, unassigned) [Compound 184b, (S,S) or (S,R)-1-(difluoro-methyl)-N′-((3-methyl-1,2,3,5,67-hexahydro-dicyclopenta[b,e]pyridin-8-yl)carbamoyl)-1H-pyrazole-3-sulfonimidamide], the IC50 under setting [2] is 5 to 30 µM.
Regarding `CC(C)(O)c1cc(F)c(S(N)(=O)=NC(=O)Nc2c3c(nc4c2CCC42CC2)CCC3)s1` (single isomer, unassigned) [Compound 101a, (S) or (R)-3-fluoro-5-(2-hydroxypropan-2-yl)-N′-((1′,5′,6′,7′-tetrahydro-2′H-spiro[cyclopropane-1,3′-dicyclopenta[b,e]pyridin]-8′-yl)carbamoyl)thiophene-2-sulfonimidamide], under setting [2], the IC50 was 1 to 5 µM.
With `CC1CCc2c1nc1c(c2NC(=O)N=S(N)(=O)c2sc(C(C)(C)O)nc2CO)CCC1` (single isomer, unassigned) [Compound 168b, (R,R/S) or (S,R/S)-4-(hydroxymethyl)-2-(2-hydroxypropan-2-yl)-N′-((3-methyl-1,2,3,5,6,7-hexa-hydrodicyclopenta[b,e]py-ridin-8-yl)carbamoyl)thia-zole-5-sulfonimidamide], under setting [2], the 50% inhibitory concentration (IC50) lay within 0.2 to 1 µM.
Turning to `CCc1cc(NC(=O)N=S(N)(=O)c2cnc(C(C)(C)O)s2)c2c(n1)CCC2` (stereo not shown) [Compound 137, N′-((2-ethyl-6,7-dihydro-5H-cyclopenta[b]pyridin-4-yl)carbamoyl)-2-(2-hydroxypropan-2-yl)thiazole-5-sulfonimidamide], under setting [3], the 50% inhibitory concentration (IC50) was greater than 30 µM.
Regarding `CC(C)(O)c1cc(F)c(S(N)(=O)=NC(=O)Nc2c3c(nc(C4CC4)c2C2CC2)CCC3)s1` (stereo not shown) [Compound 727], the 50% inhibitory concentration (IC50) under setting [1] fell in the range of 0.2 to 1 µM.
In the case of `Cc1c(C(F)(F)F)nc2c(c1NC(=O)N=S(N)(=O)c1cnn(C(F)F)c1)CCC2` (stereo not shown) [Compound 617, 1-(Difluoromethyl)-N′-((3-methyl-2-(trifluoromethyl)-6,7-dihydro-5H-cyclopenta[b]pyridin-4-yl)carbamoyl)-1H-pyrazole-4-sulfonimidamide], under setting [1], the concentration for half-maximal inhibition (IC50) is 5 to 30 µM.
As for `Cc1c(C2CC2)nc2c(c1NC(=O)N=S(N)(=O)c1cc(C(C)(C)O)cs1)CCC2C` (stereo not shown) [Compound 656, N′-((2-cyclopropyl-3,7-dimethyl-6,7-dihydro-5H-cyclopenta[b]pyridin-4-yl)carbamoyl)-4-(2-hydroxypropan-2-yl)thiophene-2-sulfonimidamide], the IC50 (Table B2, class symbols, read-out: hTHP-1 IC50) lay in the range of 1 to 5 µM.
Regarding `Cc1c(C(C)(C)C)nc2c(c1NC(=O)N=S(N)(=O)c1cc(C(C)(C)O)cs1)CCC2` (single isomer, unassigned) [Compound 657b, (R) or (S)-N′-((2-(tert-butyl)-3-methyl-6,7-dihydro-5H-cyclopenta[b]pyridin-4-yl)carbamoyl)-4-(2-hydroxypropan-2-yl)thiophene-2-sulfonimidamide], the half-maximal inhibitory concentration (IC50) under setting [1] lay in the range of 5 to 30 µM.
As to `C[C@@H]1CCc2c1nc1c(c2NC(=O)N=S(N)(=O)c2cnc([C@](C)(O)CO)s2)CCC1` (single isomer, unassigned) [Example 731], the half-maximal inhibitory concentration (IC50) under setting [4] was in the range of 0.04 to 0.2 µM.
As for `C[C@@H]1CCc2c1nc1c(c2NC(=O)N=S(N)(=O)c2nn(C(F)F)cc2F)CCC1` (single isomer, unassigned) [Example 680, (S) or (R)-1-(difluoromethyl)-4-fluoro-N′-(((R)-3-methyl-1,2,3,5,6,7-hexahydrodicyclopenta[b,e]pyridin-8-yl)carbamoyl)-1H-pyrazole-3-sulfonimidamide], the concentration for half-maximal inhibition (IC50) under setting [5] fell in the range of 5 to 30 µM.
For `CC(C)(O)c1cccc(S(N)(=O)=NC(=O)Nc2c3c(nc4c2CCC4(C)C)CCC3)n1` (stereo not shown) [Example 630, N′-((3,3-dimethyl-1,2,3,5,6,7-hexahydrodicyclopenta[b,e]pyridin-8-yl)carbamoyl)-6-(2-hydroxypropan-2-yl)pyridine-2-sulfonimidamide], the half-inhibitory concentration (IC50) under setting [6] lay within 5 to 30 µM.
Take `CCn1cc(F)c(S(N)(=O)=NC(=O)Nc2c3c(nc(C(F)(F)F)c2-c2cccc(F)c2)CCC3)n1` (stereo not shown) [Example 747, 1-Ethyl-4-fluoro-N′-((3-(3-fluorophenyl)-2-(trifluoromethyl)-6,7-dihydro-5H-cyclopenta[b]pyridin-4-yl)cathamoyl)-1H-pyrazole-3-sulfonimidamide]: the half-maximal inhibitory concentration (IC50) under setting [7] was in the range of 0.008 to 0.04 µM.
Take `CC(C)(O)c1ncc(S(N)(=O)=NC(=O)Nc2c3c(nc4c2CCC4)CCCC3)s1` (single isomer, unassigned) [Compound 161a, (S) or (R)-N′-((2,3,5,6,7,8-hexahydro-1H-cyclopenta[b]quinolin-9-yl)carbamoyl)-2-(2-hydroxypropan-2-yl)thiazole-5-sulfonimidamide]: the IC50 under setting [2] was in the range of 5 to 30 µM.
Take `Cc1c(C(F)(F)F)nc2c(c1NC(=O)N=S(N)(=O)c1cnn(C(F)F)c1)CCC2` (single isomer, unassigned) [Compound 617a, (R) or (S)-1-(Difluoromethyl)-N′-((3-methyl-2-(trifluoromethyl)-6,7-dihydro-5H-cyclopenta[b]pyridin-4-yl)carbamoyl)-1H-pyrazole-4-sulfonimidamide]: the IC50 under setting [1] was 5 to 30 µM.
As for `CCn1cc(F)c(S(N)(=O)=NC(=O)Nc2c3c(nc(C)c2-c2ccccc2)CCC3)n1` (stereo not shown) [Example 741, 1-Ethyl-4-fluoro-N′-((2-methyl-3-phenyl-6,7-dihydro-5H-cyclopenta[b]pyridin-4-yl)carbamoyl)-1H-pyrazole-3-sulfonimidamide], under setting [4], the IC50 was in the range of 0.04 to 0.2 µM.
For `Cc1nc2c(c(NC(=O)N=S(N)(=O)c3nn(C(F)F)cc3F)c1-c1ccccc1)CCC2` (stereo not shown) [Example 620, 1-(Difluoromethyl)-4-fluoro-N′-((2-methyl-3-phenyl-6,7-dihydro-5H-cyclopenta[b]pyridin-4-yl)carbamoyl)-1H-pyrazole-3-sulfonimidamide], the half-maximal inhibitory concentration (IC50) under setting [6] is 0.2 to 1 µM.
On to `CC(C)c1nc2c(cc1NC(=O)N=S(N)(=O)c1cnc(C(C)(C)O)s1)CCC2` (single isomer, unassigned) [Example 702, (S) or (R)-2-(2-Hydroxypropan-2-yl)-N′-((2-isopropyl-6,7-dihydro-5H-cyclopenta[b]pyridin-3-yl)carbamoyl)thiazole-5-sulfonimidamide], for which, where the note is “Homo sapiens, THP-1, Table B3, hTHP-1 assay, numeric values, read-out: IC50”, the IC50 is greater than 30 µM.
As to `Cc1c(C2(C)CC2)nc2c(c1NC(=O)N=S(N)(=O)c1cc(C(C)(C)O)cs1)CCC2` (single isomer, unassigned) [Compound 669b, (R) or (S)-4-(2-Hydroxypropan-2-yl)-N′-((3-methyl-2-(1-methylcyclopropyl)-6,7-dihydro-5H-cyclopenta[b]pyridin-4-yl)carbamoyl) thiophene-2-sulfonimidamide], under setting [1], the half-inhibitory concentration (IC50) lay in the range of 5 to 30 µM.
For the molecule `Cc1c(C(F)(F)F)nc(C(F)(F)F)c(C)c1NC(=O)N=S(N)(=O)c1cc(C(C)(C)O)cs1` (single isomer, unassigned) [Example 755, (R) or (S)-N′-((3,5-dimethyl-2,6-bis(trifluoromethyl)pyridin-4-yl)carbamoyl)-4-(2-hydroxypropan-2-yl)thiophene-2-sulfonimidamide], the IC50 under setting [7] lay within 0.2 to 1 µM.
In the case of `CC(C)(O)c1ccc(S(N)(=O)=NC(=O)Nc2c3c(nc4c2CCC4)CCC3)cc1` (single isomer, unassigned) [Compound 633b, (R) or (S)-N′-((1,2,3,5,6,7-hexahydrodicyclopenta [b,e]pyridin-8-yl)carbamoyl)-4-(2-hydroxypropan-2-yl)benzene-sulfonimidamide], the IC50 under setting [1] was 5 to 30 µM.
Consider `CC1CCc2c1nc1c(c2NC(=O)N=S(N)(=O)c2ccn(C(C)C)n2)CCC1` (single isomer, unassigned) [Compound 129ab, (S,S) or (S,R)-1-isopropyl-N′-((3-methyl-1,2,3,5,6,7-hexa-hydrodicyclo-penta[b,e]pyridin-8-yl)carbamoyl)-1H-pyrazole-3-sulfonimidamide], for which, under setting [3], the half-maximal inhibitory concentration (IC50) is greater than 30 µM.
As to `NS(=O)(=NC(=O)Nc1c2c(nc(C(F)(F)F)c1-c1ccccc1)CCC2)c1nn(C(F)F)cc1F` (stereo not shown) [Example 740, 1-(Difluoromethyl)-4-fluoro-N′-((3-phenyl-2-(trifluoromethyl)-6,7-dihydro-5H-cyclopenta[b]pyridin-4-yl)carbamoyl)-1H-pyrazole-3-sulfonimidamide], under setting [4], the IC50 lay in the range of 0.04 to 0.2 µM.
As for `CCn1ccc(S(N)(=O)=NC(=O)Nc2c3c(nc(C4CC4)c2C2CC2)CCC3)n1` (single isomer, unassigned) [Example 699, (R) or (S)-N′-((2,3-dicyclopropyl-6,7-dihydro-5H-cyclopenta[b]pyridin-4-yl)carbamoyl)-1-ethyl-1H-pyrazole-3-sulfonimidamide], the IC50 under setting [5] fell in the range of 0.2 to 1 µM.
